In article PMC4839570, “Novel Anthra[1,2-c][1,2,5]Thiadiazole-6,11-Diones as Promising Anticancer Lead Compounds: Biological Evaluation, Characterization & Molecular Targets Determination” (PLoS ONE, 2016):
Read-outs that look alike come from different tables or passages of the source.

Columns and labels:
[1] = test system: CAKI-1; test: NCI-60 cytotoxicity screen; format: cell-based
[2] = test system: SNB-75; test: NCI-60 cytotoxicity screen; format: cell-based
[3] = test system: NF-κB p65 subunit in OVCAR-3 cells; test: Western blotting of nuclear and cytosolic fractions; format: cell-based, human; details: OVCAR-3 nuclear fraction
Experimental: Treated cells were fractionated into nuclear and cytosolic fractions using the Nuclear/Cytosol fractionation kit (BioVision), separated by electrophoresis in SDS-PAGE gels and transferred to Amersham Hybond-P PVDF Membranes. Membranes were probed with either anti-NF-κB p65 rabbit monoclonal primary antibody [E379] Abcam # ab32536, anti-TATA binding protein (TBP) mouse antibody (1TBP18), or anti-beta Tubulin rabbit antibody [NB600-936]. After washing, membranes were incubated with either goat anti-rabbit IgG H&L (HRP) (ab6721), or rabbit anti-mouse IgG H&L (HRP) (ab6728) secondary antibodies. Membranes were developed using the Immobilon Western chemiluminescent HRP substrate kit. Protein bands were normalized to either the beta Tubulin or TBP bands and quantified using ImageJ software.

[4] = test system: OVCAR-5; test: NCI-60 cytotoxicity screen; format: cell-based
[5] = test system: SF-295; test: JFCR-39 cytotoxicity screen; format: cell-based
[6] = test system: SK-MEL-28; test: NCI-60 cytotoxicity screen; format: cell-based
[7] = test system: HCC-2998; test: NCI-60 cytotoxicity screen; format: cell-based
[8] = test system: MDA-MB-468; test: NCI-60 cytotoxicity screen
[9] = test system: SF-539; test: JFCR-39 cytotoxicity screen; format: cell-based
[10] = test system: LOX-IMVI; test: JFCR-39 cytotoxicity screen; format: cell-based
[11] = test system: MALME-3M; test: NCI-60 cytotoxicity screen; format: cell-based
[12] = test system: UACC-257; test: NCI-60 cytotoxicity screen; format: cell-based
[13] = test system: OVCAR-3; test: cells; details: Homo sapiens, OVCAR-3, read-out: mean log10 of the GI50 values (converted)
[14] = test system: RXF-631L; test: JFCR-39 cytotoxicity screen; format: cell-based
[15] = test system: DU-145; test: JFCR-39 cytotoxicity screen; format: cell-based
[16] = test system: OVCAR-8; test: JFCR-39 cytotoxicity screen; format: cell-based
[17] = test system: RPMI-8226; test: NCI-60 cytotoxicity screen; format: cell-based
[18] = test system: KM-12; test: JFCR-39 cytotoxicity screen; format: cell-based
[19] = test system: OVCAR-3; details: JFCR
[20] = test system: NCI-H226; test: NCI-60 cytotoxicity screen; format: cell-based
[21] = test system: M14; test: NCI-60 cytotoxicity screen; format: cell-based
[22] = test system: HCT-116; test: NCI-60 cytotoxicity screen; format: cell-based
[23] = test system: U251; test: NCI-60 cytotoxicity screen; format: cell-based
[24] = test system: NCI-H460; test: JFCR-39 cytotoxicity screen; format: cell-based
[25] = test system: HBC-5; test: JFCR-39 cytotoxicity screen; format: cell-based
[26] = test system: T-47D; test: NCI-60 cytotoxicity screen; format: cell-based
[27] = test system: SW-620; test: NCI-60 cytotoxicity screen; format: cell-based
[28] = test system: NCI-H23; test: JFCR-39 cytotoxicity screen; format: cell-based
[29] = Homo sapiens, Fig 7, read-out: mean log10 of the GI50 values (converted)
[30] = Homo sapiens, five-dose, read-out: GI50
[31] = Homo sapiens, five-dose, read-out: LC50 (the source's name)
[32] = Homo sapiens, read-out: LC50 (the source's name)

O=C1c2ccccc2C(=O)c2c1cc(Cl)c1nsnc21 [NSC757963]
GI50 [1, 29]: 7.08 µM
GI50 [1, 30]: 12.3 µM
CC50 [1, 31]: 58.8 µM
TGI ([1]; five-dose): 26.8 µM
GI50 [2, 29]: 1.91 µM
GI50 [2, 30]: 2.17 µM
CC50 [2, 31]: 69.1 µM
TGI ([2]; five-dose): 6.89 µM
dose of almost complete inhibition of nuclear NF-κB p65 expression [3]: 2.4 µM
GI50 [4, 29]: 17.4 µM
GI50 [4, 30]: 17.6 µM
CC50 [4, 31]: 56.8 µM
TGI ([4]; five-dose): 31.6 µM
TGI [5]: 3.5 µM
GI50 ([5]; Homo sapiens): 1.9 µM
CC50 [5, 32]: 6.5 µM
GI50 [6, 29]: 5.37 µM
GI50 [6, 30]: 9.52 µM
CC50 [6, 31]: 47 µM
TGI ([6]; five-dose): 21.5 µM
GI50 [7, 29]: 17 µM
LC50 (concentration causing 50% net cell kill) ([7]; Homo sapiens, five-dose): 56.6 µM
GI50 [7, 30]: 14.1 µM
TGI ([7]; five-dose): 28.2 µM
GI50 ([8]; Homo sapiens, MDA-MB-468): 1.38 µM
CC50 ([8]; Homo sapiens, MDA-MB-468, read-out: LC50): 6.25 µM
inhibition at 10 µM ([8]; Homo sapiens, MDA-MB-468, read-out: growth inhibition): 88.3%
GI50 ([8]; Homo sapiens, MDA-MB-468, read-out: mean log10 of the GI50 values (converted)): 0.631 µM
TGI ([8]; MDA-MB-468, five-dose): 2.93 µM
TGI [9]: 3.4 µM
GI50 ([9]; Homo sapiens): 1.9 µM
CC50 [9, 32]: 6.4 µM
TGI [10]: 4.2 µM
GI50 ([10]; Homo sapiens): 1.9 µM
CC50 [10, 32]: 9.3 µM
GI50 [11, 29]: 12.6 µM
GI50 [11, 30]: 15.9 µM
CC50 [11, 31]: 59.1 µM
TGI ([11]; five-dose): 30.7 µM
GI50 [12, 29]: 7.76 µM
GI50 [12, 30]: 14.5 µM
CC50 [12, 31]: 53.5 µM
TGI ([12]; five-dose): 27.8 µM
GI50 [13]: 1.86 µM
TGI [14]: 3.1 µM
GI50 ([14]; Homo sapiens): 1.7 µM
CC50 [14, 32]: 5.9 µM
TGI [15]: 6.3 µM
GI50 ([15]; Homo sapiens): 2.5 µM
CC50 [15, 32]: 23 µM
TGI [16]: 4.8 µM
GI50 ([16]; Homo sapiens): 2.1 µM
CC50 [16, 32]: > 100 µM
GI50 [17, 29]: 2.88 µM
GI50 [17, 30]: 3.15 µM
CC50 [17, 31]: > 100 µM
TGI ([17]; five-dose): 53.2 µM
TGI [18]: 8.4 µM
GI50 ([18]; Homo sapiens, KM12): 3 µM
CC50 ([18]; Homo sapiens, KM12, read-out: LC50 (the source's name)): 36 µM
TGI [19]: 4.2 µM
GI50 [20, 29]: 16.2 µM
LC50 (concentration killing 50% of cells) ([20]; Homo sapiens, five-dose): 53.9 µM
GI50 [20, 30]: 14.9 µM
TGI ([20]; five-dose): 28.3 µM
GI50 [21, 29]: 15.1 µM
GI50 [21, 30]: 17 µM
CC50 [21, 31]: 59.7 µM
TGI ([21]; five-dose): 31.9 µM
GI50 [22, 29]: 2.45 µM
GI50 [22, 30]: 3.45 µM
CC50 [22, 31]: 35.3 µM
TGI ([22]; five-dose): 11.8 µM
GI50 ([23]; Homo sapiens, U-251, Fig 7, read-out: mean log10 of the GI50 values (converted)): 2.34 µM
GI50 ([23]; Homo sapiens, U-251, five-dose, read-out: GI50): 3.29 µM
CC50 ([23]; Homo sapiens, U-251, five-dose, read-out: LC50 (the source's name)): 32.7 µM
TGI ([23]; five-dose): 10.4 µM
TGI [24]: 26.0 µM
GI50 ([24]; Homo sapiens): 10 µM
CC50 [24, 32]: 64 µM
TGI [25]: 4.1 µM
GI50 ([25]; Homo sapiens, HBC5): 2.1 µM
CC50 ([25]; Homo sapiens, HBC5, read-out: LC50 (the source's name)): 8.3 µM
GI50 ([26]; Homo sapiens, T47D, Fig 7, read-out: mean log10 of the GI50 values (converted)): 0.912 µM
GI50 ([26]; Homo sapiens, T47D, five-dose, read-out: GI50): 1.97 µM
CC50 ([26]; Homo sapiens, T47D, five-dose, read-out: LC50 (the source's name)): > 100 µM
TGI ([26]; five-dose): 4.56 µM
GI50 [27, 29]: 2.51 µM
GI50 [27, 30]: 2.87 µM
CC50 [27, 31]: 58.7 µM
TGI ([27]; five-dose): 10.4 µM
TGI [28]: 4.1 µM
GI50 ([28]; Homo sapiens): 1.9 µM
CC50 [28, 32]: 8.7 µM
